{"source": "patent US20020076693A1", "about": "“Novel cell surface receptor for HIV retroviruses, therapeutic and diagnostic uses” (priority 1997, published 2002)", "key": {"[1]": {"system": "HIV-1 AZT resistant, Saquinavir resistant, Nevirapine resistant", "assay": "Entry of HIV-1 isolates resistant to antiviral drugs into HeLa cells (β-galactosidase)", "assay_type": "cell-based", "conditions": "heparin 5 mg/ml", "procedure": "HIV entry and replication, results in the activation of the HIV LTR, leading to the expression of the lacZ gene. Therefore, at 24 and 48 hours post-infection, the β-galactosidase activity could be measured in cell extracts directly. Consequently, this latter technique could be used to monitor HIV entry into cells. The HIV dose used corresponded to the amount of virus containing 20-40 ng/ml of p24.\nIn these experiments, the background values of the β-galactosidase activity were assesed by the samples incubated with the a-CD4 mAb. Furthermore, the effect of heparin (5 mg/ml) was investigated."}, "CD4^+ CEM cells": {"system": "CD4^+ CEM cells", "assay": "Binding of 125I-labeled gp120 to CEM cells", "parameters": "species or system human", "procedure": "A. The binding of ^125I-labeled gp120 to CEM cells. […] The cells were then washed as described in “Materials and Methods” and processed for analysis of the bound gp120.\nRecombinant gp120 (Neosystem, Strasbourg, France) was radioiodinated with the Bolton-Hunter reagent (New England Nuclear-Du Pont, Boston, Mass.) according to the technique described by the manufacturer. To study the binding of gp120 to the CD4 receptor, CEM cells (5×10^6) which express high levels of CD4 were incubated in the culture medium with ^125I-labeled gp120 (50 ng; 10 Ci/mg) at 37° C. for 1 hour. Cells were then washed twice in PBS (5 ml) and cytoplasmic extracts were prepared by disruption of cell pellets in buffer E ([…]). Aliquots ([…]; corresponding to material from 10^6 cells) were diluted in two-fold concentrated electrophoresis buffer and were analyzed by SDS/PAGE. […] The ^125I-labeled gp120 band was also quantitated in a Phosphorimager (Molecular Dynamics, Sunnyvale, Calif.)."}, "P30/PHAPI": {"biological_target": "P30/PHAPI (Homo sapiens, UniProt P39687)", "sequence (P39687 whole entry)": "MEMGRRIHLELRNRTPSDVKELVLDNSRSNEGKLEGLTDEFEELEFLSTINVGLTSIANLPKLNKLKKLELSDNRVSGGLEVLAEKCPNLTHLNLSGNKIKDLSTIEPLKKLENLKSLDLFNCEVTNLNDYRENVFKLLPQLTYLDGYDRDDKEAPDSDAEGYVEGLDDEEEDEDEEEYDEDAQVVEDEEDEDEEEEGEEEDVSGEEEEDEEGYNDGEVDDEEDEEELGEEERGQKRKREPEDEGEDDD", "assay": "Saturation of binding sites of P30/PHAPI"}, "[2]": {"system": "cell surface component (CEM and C8166 clones)", "assay": "Competition for cell-surface binding of 8-MAP", "parameters": "species or system human", "conditions": "FACS competition"}, "P95/nucleolin": {"biological_target": "P95/nucleolin (Homo sapiens, UniProt P19338)", "sequence (P19338 whole entry)": "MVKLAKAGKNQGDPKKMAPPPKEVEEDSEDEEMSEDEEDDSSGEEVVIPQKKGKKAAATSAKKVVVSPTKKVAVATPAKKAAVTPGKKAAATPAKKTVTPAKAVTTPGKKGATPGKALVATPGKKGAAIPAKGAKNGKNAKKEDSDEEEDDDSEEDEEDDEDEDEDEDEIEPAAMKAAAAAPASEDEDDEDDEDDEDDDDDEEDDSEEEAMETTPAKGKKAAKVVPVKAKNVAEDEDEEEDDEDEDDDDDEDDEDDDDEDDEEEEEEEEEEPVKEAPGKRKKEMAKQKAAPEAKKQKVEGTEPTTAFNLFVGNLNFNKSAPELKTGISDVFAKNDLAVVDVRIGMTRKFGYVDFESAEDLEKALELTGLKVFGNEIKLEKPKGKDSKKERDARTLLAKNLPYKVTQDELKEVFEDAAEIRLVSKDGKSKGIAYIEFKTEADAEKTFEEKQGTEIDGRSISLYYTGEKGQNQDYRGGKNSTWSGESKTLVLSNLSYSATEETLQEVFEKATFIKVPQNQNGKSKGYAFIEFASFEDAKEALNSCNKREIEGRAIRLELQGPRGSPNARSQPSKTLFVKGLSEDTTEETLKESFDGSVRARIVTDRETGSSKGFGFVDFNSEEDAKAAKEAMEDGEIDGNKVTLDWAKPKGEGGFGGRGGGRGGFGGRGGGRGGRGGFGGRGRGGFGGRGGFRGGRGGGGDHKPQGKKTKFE", "assay": "Saturation of binding sites of P95/nucleolin"}, "P40/PHAPII": {"biological_target": "P40/PHAPII (Homo sapiens, UniProt Q01105)", "sequence (Q01105 1-277 isoform Q01105-2)": "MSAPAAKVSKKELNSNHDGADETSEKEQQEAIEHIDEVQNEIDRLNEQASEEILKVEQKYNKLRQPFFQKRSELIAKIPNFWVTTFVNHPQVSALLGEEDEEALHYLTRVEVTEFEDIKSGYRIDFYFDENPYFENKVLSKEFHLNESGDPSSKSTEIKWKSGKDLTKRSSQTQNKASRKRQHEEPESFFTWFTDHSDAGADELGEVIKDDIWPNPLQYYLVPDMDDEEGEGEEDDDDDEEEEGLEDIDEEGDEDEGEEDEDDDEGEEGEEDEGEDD", "assay": "Saturation of binding sites of P40/PHAPII"}, "HIV-1 Lai [3]": {"system": "HIV-1 Lai", "assay": "Binding of HIV particles to CEM cells (cell-associated p24)", "assay_type": "cell-based", "conditions": "37° C., 1 hour; TASP 10 mM, mAb OKT4A 10 μg/ml, mAb anti-CD4 5 μg/ml, rabbit antibodies 100 μg/ml", "procedure": "B. The binding of HIV particles to CEM cells. […] The binding of HIV particles was estimated as described in “Materials and Methods”. The ordinate gives the concentration of p24 associated with the cells, i.e. particles bound on the cell surface as well as particles (or cores) entered into cells. Each value represents the mean of two identical samples. Similar results were obtained in two other indepenent experiments.\nCEM cells (5×10^6) were first preincubated (15 min, 37° C.) in the absence (Control) or presence of mAb anti-CD4 CB-T4 (5 μg/ml; histogram a-CD4), rabbit peptide purified antibodies against nucleolin, PHAP II and PHAP I at 100 μg/ml, or combination of antibodies as shown (at the same concentrations as when used alone) before the addition of HIV-1 Lai (material corresponding to 5 ng of p24), and further incubation at 37° C. for 1 hr. The cells were then washed and cell extracts were prepared to estimate the amount of HIV binding to cells (HIV bound on the surface+HIV entered into cells). The amount of virus particles was estimated by measuring the concentration of p24. The experimental conditions were as described previously (Krust et al., 1993; Callebaut et al., 1997b).\nAfter incubation at 37° C. for 1 hour with gentle shaking, cells were diluted 10 fold in the culture medium and pelleted by centrifugation. […]"}, "HIV-1 Bal": {"system": "HIV-1 Bal", "assay": "HIV entry into HeLa P4-C5 cells (β-galactosidase), HIV-1 Ba-L", "assay_type": "cell-based", "conditions": "HeLa P4-C5, HIV-1 Bal; read-out: IC50, inhibition of HIV entry"}, "HIV-1 Ada-M": {"system": "HIV-1 Ada-M", "assay": "Infection of PBMC by HIV-1 Ada-M (p24)", "assay_type": "cell-based", "conditions": "p24 at 6 days post-infection", "from_the_text": "Virus production was monitored by the concentration of p24 in the culture medium at 6 days post-infection (3 +L0)."}, "HIV-1 Lai [4]": {"system": "HIV-1 Lai", "assay": "HIV entry into HeLa P4 / P4-C5 cells (β-galactosidase activity), HIV-1 Lai", "assay_type": "cell-based"}, "[5]": {"assay": "Stability of TASP constructs in serum (residual activity to bind the cell-surface ligand)", "assay_type": "in vitro ADME"}, "HIV-1 JRCSF": {"system": "HIV-1 JRCSF", "assay": "HIV entry into HeLa P4-C5 cells (β-galactosidase), HIV-1 JRCSF", "assay_type": "cell-based", "conditions": "HeLa P4-C5, HIV-1 JRCSF; read-out: IC50, inhibition of HIV entry"}, "HIV-1 Lai [6]": {"system": "HIV-1 Lai", "assay": "Inhibition of HIV-1 Lai infection of CEM cells (p24 production)", "assay_type": "cell-based", "procedure": "Infection of CEM cells with the HIV-1 Lai isolate was carried out as described previously (Callebaut et al., 1996). For the assay of the inhibitory effect of rabbit antisera or purified antibodies, CEM cells were first incubated (15-30 min, at room temperature) in the presence of different concentrations of each antibody preparation before infection using 0.2 synchronous dose of HIV-1 Lai as described before (Laurent-Crawford and Hovanessian, 1993). HIV production was estimated at different days post-infection (p.i.) by monitoring the HIV-1 major core protein p24 in the culture supernatant (Callebaut et al., 1996). The concentration of p24 was measured by p24 Core Profile ELISA (Du Pont). For a single cycle of HIV, AZT ([…]) was added at 8 hr post-infection to inhibit multiple cycles of virus infection; HIV production was monitored at 4 days post-infection (Laurent-Crawford and Hovanessian, 1993)."}}, "note": "pIC50: −log10 of the molar value."}
{"substance": "5[Kψ(CH2N)PR]-TASP", "values": [{"measurement": "effect on entry of drug-resistant HIV-1 isolates", "setting": "[1]", "value": "Inhibits Entry"}, {"measurement": "binding of 125I-labeled gp120 to CEM cells", "setting": "CD4^+ CEM cells; 20 mM of TASP", "value": "not affected"}, {"measurement": "binding of 125I-labeled gp120 to CEM cells", "setting": "CD4^+ CEM cells; higher concentrations of TASP (40, 80 μM)", "value": "slight inhibition"}, {"measurement": "concentration for 100% saturation of the binding sites", "setting": "P30/PHAPI", "value": 8, "unit": "µM"}, {"measurement": "concentration sufficient to block the binding of 10 μM of 8-MAP", "setting": "[2]", "value": 1, "unit": "µM"}, {"measurement": "concentration for 100% saturation of the binding sites", "setting": "P95/nucleolin", "value": 2, "unit": "µM"}, {"measurement": "concentration for 100% saturation of the binding sites", "setting": "P40/PHAPII", "value": 4, "unit": "µM"}, {"measurement": "inhibition of binding of HIV particles to CEM cells", "setting": "HIV-1 Lai [3]", "value": 78, "unit": "%"}, {"measurement": "pIC50", "setting": "HIV-1 Bal", "value": 6.52}, {"measurement": "effect on HIV-1 Ada-M infection of PBMC", "setting": "HIV-1 Ada-M", "value": "no effect"}, {"measurement": "inhibition of viral entry monitored by β-galactosidase activity in HeLa/CD4^+ cells", "setting": "HIV-1 Lai [4]; 5-10 μM", "value": "at least 90%"}, {"measurement": "inhibition of HIV-1 LAI infection in HeLa cells", "setting": "HIV-1 Lai [4]; 37° C. in culture medium, 0.1-1 μM", "value": "more than 90%"}, {"measurement": "activity retained after 18 hours of incubation in serum", "setting": "[5]", "value": "more than 80%"}, {"measurement": "inactivated after 18 hours of incubation in sera", "setting": "[5]", "value": "less than 20%"}, {"measurement": "pIC50", "setting": "HIV-1 JRCSF", "value": 6.52}, {"measurement": "inhibition of virus production", "setting": "HIV-1 Lai [6]; 5 mM added one hour before or together with the virus", "value": "more than 90%"}, {"measurement": "inhibitory effect when added at 8 hours p.i.", "setting": "HIV-1 Lai [6]; CEM cells", "value": "almost no effect"}, {"measurement": "HIV entry monitored by intracellular concentration of p24", "setting": "HIV-1 Lai [6]; CEM cells, 1 hour incubation with virus, 5-10 μM", "value": "inhibited almost completely"}, {"measurement": "combined action with AZT against an HIV infection", "setting": "HIV-1 Lai [6]; CEM cells, HIV-1 Lai, p24 at 4 days p.i.", "value": "synergistic action"}, {"measurement": "pIC50", "setting": "HIV-1 Lai [6]; CEM cells, construct added 15 min before HIV-1, p24 at 4 days p.i., read-out: Inhibition of HIV infection (IC50), 50% dose", "value": 6.30}, {"measurement": "inhibition of HIV-1 Lai infection in CEM cells", "setting": "HIV-1 Lai [6]; TASP 5 μM, p24 at 5 days p.i.", "value": "more than 95%"}, {"measurement": "inhibition of virus infection", "setting": "HIV-1 Lai [6]; TASP 10 μM, mAb OKT4A 10 mg/ml", "value": "complete inhibition"}, {"measurement": "higher activity compared to non-reduced counterpart 5[KPR]-TASP", "setting": "HIV-1 Lai [6]; both inhibition of HIV infection and affinity to bind the cell-surface ligand", "value": "≥ 10", "unit": "fold"}]}
